Results published in the NIST ThermoML archive (doi:10.1016/j.jct.2013.04.007).

Assay: cn = amount concentration of the nth substance listed, in mol/dm3
Details: 303.15 K; 101 kPa; Liquid; 4510 conductivity meter; c1 = 0.001

## CC1=C(C(=O)O)N2C(=O)[C@@H](NC(=O)[C@H](N)c3ccc(O)cc3)[C@H]2SC1 [cefadroxil] + O
  electrical conductivity: 0.0001 S/m
